18 compounds from patent publication US11173151B2, “Substituted triazole derivatives and uses thereof” (BAYER AKTIENGESELLSCHAFT, priority 2017, dated 2021) can be followed below.

What is called IC50 is the concentration that gives 50% inhibition.

In one experiment the target is T1, human V1a receptor (Homo sapiens, UniProt P37288).
T1 construct: expressed in transfected cells; host or cells: CHO K1 (ATCC), also stably transfected with a modified aequorin
Nature of the experiment: Cellular in vitro assay for determining vasopressin receptor activity, V1a receptor cell line (CHO, aequorin luminescence). In kind it is cell-based. The conditions noted are these: for IC50: CHO cell line transfected with human V1a receptor, [Arg]-vasopressin at EC50 concentration, read-out: IC50 hV1a; for ratio IC50 hV2/hV1a: selectivity ratio IC50 hV2 / IC50 hV1a. In outline: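 Luminescence from reconstituted aequorin, reporting intracellular calcium release, was measured immediately after adding [Arg]-vasopressin at EC50 concentration to CHO K1 cells pretreated 10 minutes with graded compound concentrations. Inhibition gave IC50 values.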

For a further experiment, the target named is T2, human V2 receptor (Homo sapiens, UniProt P30518).
T2 construct: expressed in transfected cells; host or cells: CHO K1 (ATCC) expressing firefly luciferase under a CRE-responsive promoter
T2 sequence (P30518 whole entry): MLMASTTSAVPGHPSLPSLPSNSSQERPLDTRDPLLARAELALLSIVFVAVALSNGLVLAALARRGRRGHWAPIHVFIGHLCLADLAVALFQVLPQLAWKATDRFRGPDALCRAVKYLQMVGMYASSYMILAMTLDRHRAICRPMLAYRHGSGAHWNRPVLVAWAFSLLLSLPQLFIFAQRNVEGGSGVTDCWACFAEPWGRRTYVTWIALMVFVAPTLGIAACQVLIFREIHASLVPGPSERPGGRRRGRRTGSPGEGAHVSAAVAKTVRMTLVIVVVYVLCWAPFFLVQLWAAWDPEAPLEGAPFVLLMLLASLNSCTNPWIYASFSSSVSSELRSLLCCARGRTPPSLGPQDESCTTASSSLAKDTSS
Briefly: Cellular in vitro assay for determining vasopressin receptor activity, V2 receptor cell line (CHO, CRE-luciferase). Type of experiment: cell-based. The conditions noted are these: CHO cell line transfected with human V2 receptor; [Arg8]-vasopressin at EC50 concentration, 3 hours; read-out: IC50 hV2.

T1 sequence (P37288 whole entry): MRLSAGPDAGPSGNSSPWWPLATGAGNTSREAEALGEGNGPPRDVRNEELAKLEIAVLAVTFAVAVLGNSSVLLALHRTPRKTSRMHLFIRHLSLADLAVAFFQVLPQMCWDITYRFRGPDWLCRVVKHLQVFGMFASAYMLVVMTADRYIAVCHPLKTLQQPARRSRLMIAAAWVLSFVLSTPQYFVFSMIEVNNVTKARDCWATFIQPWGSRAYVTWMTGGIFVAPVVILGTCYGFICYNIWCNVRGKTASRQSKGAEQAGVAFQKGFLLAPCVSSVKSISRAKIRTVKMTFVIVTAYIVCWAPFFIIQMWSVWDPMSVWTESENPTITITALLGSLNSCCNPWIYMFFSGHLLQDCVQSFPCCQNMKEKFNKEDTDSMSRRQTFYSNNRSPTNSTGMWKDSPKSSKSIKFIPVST

`O=C(N[C@H]1CC[C@H](O)CC1)c1ccccc1-n1cnc(Cn2nc(-c3ccc(Cl)cc3)n(C[C@H](O)C(F)(F)F)c2=O)n1` [Example 246, 2-[3-({3-(4-Chlorophenyl)-5-oxo-4-[(2S)-3,3,3-trifluoro-2-hydroxypropyl]-4,5-dihydro-1H-1,2,4-triazol-1-yl}methyl)-1H-1,2,4-triazol-1-yl]-N-(trans-4-hydroxycyclohexyl)benzamide]: at human V1a receptor, the IC50 worked out at 4.55 nM and the “ratio IC50 hV2/hV1a” value is listed as 263.7. On human V2 receptor, the IC50 is 1200 nM.

Regarding `O=C(Nc1ccccc1O)c1ccccc1-n1cnc(Cn2nc(-c3ccc(Cl)cc3)n(C[C@H](O)C(F)(F)F)c2=O)n1` [Example 247, 2-[3-({3-(4-Chlorophenyl)-5-oxo-4-[(2S)-3,3,3-trifluoro-2-hydroxypropyl]-4,5-dihydro-1H-1,2,4-triazol-1-yl}methyl)-1H-1,2,4-triazol-1-yl]-N-(2-hydroxyphenyl)benzamide], the figures for the IC50 at human V1a receptor and on human V2 receptor were 2.4 nM and 10.4 nM, respectively. For the same compound, the “ratio IC50 hV2/hV1a” value on human V1a receptor is 4.4.

As to `O=C(Nc1cccnc1)c1ccccc1-n1cnc(Cn2nc(-c3ccc(Cl)cc3)n(C[C@H](O)C(F)(F)F)c2=O)n1` [Example 248, 2-[3-({3-(4-Chlorophenyl)-5-oxo-4-[(2S)-3,3,3-trifluoro-2-hydroxypropyl]-4,5-dihydro-1H-1,2,4-triazol-1-yl}methyl)-1H-1,2,4-triazol-1-yl]-N-(pyridin-3-yl)benzamide], at human V1a receptor, the IC50 was found to be 1.2 nM and the “ratio IC50 hV2/hV1a” value came to 54.2. For the same compound, the IC50 at human V2 receptor was 65 nM.

In the case of `Cc1ccc(NC(=O)c2ccccc2-n2cnc(Cn3nc(-c4ccc(Cl)cc4)n(C[C@H](O)C(F)(F)F)c3=O)n2)cn1` [Example 249, 2-[3-({3-(4-Chlorophenyl)-5-oxo-4-[(2S)-3,3,3-trifluoro-2-hydroxypropyl]-4,5-dihydro-1H-1,2,4-triazol-1-yl}methyl)-1H-1,2,4-triazol-1-yl]-N-(6-methylpyridin-3-yl)benzamide], on human V1a receptor, the IC50 turned out to be 2.8 nM and the “ratio IC50 hV2/hV1a” value was 48.6. For the same compound, the IC50 at human V2 receptor was determined as 136 nM.

On to `Cc1cc(NC(=O)c2ccccc2-n2cnc(Cn3nc(-c4ccc(Cl)cc4)n(C[C@H](O)C(F)(F)F)c3=O)n2)cnc1F` [Example 250, 2-[3-({3-(4-Chlorophenyl)-5-oxo-4-[(2S)-3,3,3-trifluoro-2-hydroxypropyl]-4,5-dihydro-1H-1,2,4-triazol-1-yl}methyl)-1H-1,2,4-triazol-1-yl]-N-(6-fluoro-5-methylpyridin-3-yl)benzamide], for which, on human V1a receptor, the IC50 was 4.45 nM and the “ratio IC50 hV2/hV1a” value is recorded as 19.6. In addition, the half-maximal inhibitory concentration (IC50) on human V2 receptor was 87 nM.

Turning to `O=C(Nc1nncs1)c1ccccc1-n1cnc(Cn2nc(-c3ccc(Cl)cc3)n(C[C@H](O)C(F)(F)F)c2=O)n1` [Example 251, 2-[3-({3-(4-Chlorophenyl)-5-oxo-4-[(2S)-3,3,3-trifluoro-2-hydroxypropyl]-4,5-dihydro-1H-1,2,4-triazol-1-yl}methyl)-1H-1,2,4-triazol-1-yl]-N-(1,3,4-thiadiazol-2-yl)benzamide], on human V1a receptor, the IC50 is 8.85 nM and the “ratio IC50 hV2/hV1a” value is given as 9.2. Besides, the IC50 on human V2 receptor is 81.5 nM.

For the compound `N#CCNC(=O)c1ccccc1-n1cnc(Cn2nc(-c3ccc(Cl)cc3)n(C[C@H](O)C(F)(F)F)c2=O)n1` [Example 252, 2-[3-({3-(4-Chlorophenyl)-5-oxo-4-[(2S)-3,3,3-trifluoro-2-hydroxypropyl]-4,5-dihydro-1H-1,2,4-triazol-1-yl}methyl)-1H-1,2,4-triazol-1-yl]-N-(cyanomethyl)benzamide], the IC50 came to 7.6 nM on human V1a receptor and 255 nM on human V2 receptor. Besides, the “ratio IC50 hV2/hV1a” value at human V1a receptor was 33.6.

Turning to `O=C(NCc1cccs1)c1ccccc1-n1cnc(Cn2nc(-c3ccc(Cl)cc3)n(C[C@H](O)C(F)(F)F)c2=O)n1` [Example 253, 2-[3-({3-(4-Chlorophenyl)-5-oxo-4-[(2S)-3,3,3-trifluoro-2-hydroxypropyl]-4,5-dihydro-1H-1,2,4-triazol-1-yl}methyl)-1H-1,2,4-triazol-1-yl]-N-(thiophen-2-ylmethyl)benzamide], at human V1a receptor, the IC50 was 5.7 nM and the “ratio IC50 hV2/hV1a” value is 64.0. The IC50 on human V2 receptor came out at 365 nM.

On to `Cc1cc(NC(=O)c2ccccc2-n2cnc(Cn3nc(-c4ccc(Cl)cc4)n(C[C@H](O)C(F)(F)F)c3=O)n2)ccn1` [Example 254, 2-[3-({3-(4-Chlorophenyl)-5-oxo-4-[(2S)-3,3,3-trifluoro-2-hydroxypropyl]-4,5-dihydro-1H-1,2,4-triazol-1-yl}methyl)-1H-1,2,4-triazol-1-yl]-N-(2-methylpyridin-4-yl)benzamide], for which, on human V1a receptor, the IC50 turned out to be 2.25 nM and the “ratio IC50 hV2/hV1a” value was 297.8. The half-maximal inhibitory concentration (IC50) on human V2 receptor is 670 nM.

With `O=C(Nc1cncc(F)c1)c1ccccc1-n1cnc(Cn2nc(-c3ccc(Cl)cc3)n(C[C@H](O)C(F)(F)F)c2=O)n1` [Example 255, 2-[3-({3-(4-Chlorophenyl)-5-oxo-4-[(2S)-3,3,3-trifluoro-2-hydroxypropyl]-4,5-dihydro-1H-1,2,4-triazol-1-yl}methyl)-1H-1,2,4-triazol-1-yl]-N-(5-fluoropyridin-3-yl)benzamide], on human V1a receptor, the IC50 came out at 1.33 nM and the “ratio IC50 hV2/hV1a” value was found to be 169.8. Also, the IC50 on human V2 receptor was 225 nM.

With `Cc1cnc(NC(=O)c2ccccc2-n2cnc(Cn3nc(-c4ccc(Cl)cc4)n(C[C@H](O)C(F)(F)F)c3=O)n2)s1` [Example 256, 2-[3-({3-(4-Chlorophenyl)-5-oxo-4-[(2S)-3,3,3-trifluoro-2-hydroxypropyl]-4,5-dihydro-1H-1,2,4-triazol-1-yl}methyl)-1H-1,2,4-triazol-1-yl]-N-(5-methyl-1,3-thiazol-2-yl)benzamide], on human V1a receptor, the IC50 stood at 3.6 nM and the “ratio IC50 hV2/hV1a” value worked out at 3.6. In addition, the IC50 on human V2 receptor came out at 13 nM.

Regarding `O=C(Nc1ccncn1)c1ccccc1-n1cnc(Cn2nc(-c3ccc(Cl)cc3)n(C[C@H](O)C(F)(F)F)c2=O)n1` [Example 257, 2-[3-({3-(4-Chlorophenyl)-5-oxo-4-[(2S)-3,3,3-trifluoro-2-hydroxypropyl]-4,5-dihydro-1H-1,2,4-triazol-1-yl}methyl)-1H-1,2,4-triazol-1-yl]-N-(pyrimidin-4-yl)benzamide], on human V1a receptor, the half-inhibitory concentration (IC50) was 6.05 nM and the “ratio IC50 hV2/hV1a” value was 24.8. The IC50 on human V2 receptor is 150 nM.

Regarding `O=C(Nc1ccccc1Cl)c1ccccc1-n1cnc(Cn2nc(-c3ccc(Cl)cc3)n(C[C@H](O)C(F)(F)F)c2=O)n1` [Example 258, N-(2-Chlorophenyl)-2-[3-({3-(4-chlorophenyl)-5-oxo-4-[(2S)-3,3,3-trifluoro-2-hydroxypropyl]-4,5-dihydro-1H-1,2,4-triazol-1-yl}methyl)-1H-1,2,4-triazol-1-yl]benzamide], on human V1a receptor, the IC50 came out at 1.9 nM and the “ratio IC50 hV2/hV1a” value turned out to be 42.9. Moreover, on human V2 receptor, the IC50 stood at 81.5 nM.

On to `Cc1csc(NC(=O)c2ccccc2-n2cnc(Cn3nc(-c4ccc(Cl)cc4)n(C[C@H](O)C(F)(F)F)c3=O)n2)n1` [Example 259, 2-[3-({3-(4-Chlorophenyl)-5-oxo-4-[(2S)-3,3,3-trifluoro-2-hydroxypropyl]-4,5-dihydro-1H-1,2,4-triazol-1-yl}methyl)-1H-1,2,4-triazol-1-yl]-N-(4-methyl-1,3-thiazol-2-yl)benzamide], for which, at human V1a receptor, the IC50 is 2.5 nM and the “ratio IC50 hV2/hV1a” value is listed as 22.0. On human V2 receptor, the IC50 is 55 nM.

`CC1=C(C)CN(C(=O)c2ccccc2-n2cnc(Cn3nc(-c4ccc(Cl)cc4)n(C[C@H](O)C(F)(F)F)c3=O)n2)CC1` [Example 260, 5-(4-Chlorophenyl)-2-[(1-{2-[(4,5-dimethyl-3,6-dihydropyridin-1(2H)-yl)carbonyl]phenyl}-1H-1,2,4-triazol-3-yl)methyl]-4-[(2S)-3,3,3-trifluoro-2-hydroxypropyl]-2,4-dihydro-3H-1,2,4-triazol-3-one]: at human V1a receptor, the half-inhibitory concentration (IC50) was found to be 25.5 nM and the “ratio IC50 hV2/hV1a” value amounted to 29.8. The IC50 at human V2 receptor was 760 nM.

As to `CCN(OC)C(=O)c1ccccc1-n1cnc(Cn2nc(-c3ccc(Cl)cc3)n(C[C@H](O)C(F)(F)F)c2=O)n1` [Example 261, 2-[3-({3-(4-Chlorophenyl)-5-oxo-4-[(2S)-3,3,3-trifluoro-2-hydroxypropyl]-4,5-dihydro-1H-1,2,4-triazol-1-yl}methyl)-1H-1,2,4-triazol-1-yl]-N-ethyl-N-methoxybenzamide], the IC50 on human V1a receptor turned out to be 1.45 nM; at human V2 receptor it was 450 nM. Moreover, the “ratio IC50 hV2/hV1a” value at human V1a receptor is 310.3.

On to `O=C(c1ccccc1-n1cnc(Cn2nc(-c3ccc(Cl)cc3)n(C[C@H](O)C(F)(F)F)c2=O)n1)N1C[C@@H]2C[C@H]1CO2` [Example 262, 5-(4-Chlorophenyl)-2-[(1-{2-[(1S,4S)-2-oxa-5-azabicyclo[2.2.1]hept-5-ylcarbonyl]phenyl}-1H-1,2,4-triazol-3-yl)methyl]-4-[(2S)-3,3,3-trifluoro-2-hydroxypropyl]-2,4-dihydro-3H-1,2,4-triazol-3-one], for which the IC50 stood at 3.4 nM at human V1a receptor and 880 nM on human V2 receptor. Besides, the “ratio IC50 hV2/hV1a” value at human V1a receptor is 258.8.

As to `O=CN1CCN(C(=O)c2ccccc2-n2cnc(Cn3nc(-c4ccc(Cl)cc4)n(C[C@H](O)C(F)(F)F)c3=O)n2)CC1` [Example 263, 4-{2-[3-({3-(4-Chlorophenyl)-5-oxo-4-[(2S)-3,3,3-trifluoro-2-hydroxypropyl]-4,5-dihydro-1H-1,2,4-triazol-1-yl}methyl)-1H-1,2,4-triazol-1-yl]benzoyl}piperazine-1-carbaldehyde], at human V1a receptor, the IC50 amounted to 32.5 nM and the “ratio IC50 hV2/hV1a” value amounted to 256.9. On human V2 receptor, the 50% inhibitory concentration (IC50) worked out at 8350 nM.
